These results are taken from patent US20150320723A1, “Use of Small Molecule Unfolder Protein Response Modulators to Treat Tumors With Active Sonic Hedgehog (SSH) Signaling Due To Smoothened (SMO) Mutation” (ST. JUDE CHILDREN'S RESEARCH HOSPITAL, priority 2013, published 2015).

One data set relates to oncogenic SmoM2 protein. Put plainly: Initial testing of compounds: SmoM2 protein stability in cultured mouse NIH3T3 cells. Format: cell-based. An excerpt:
The four ER stress/UPR modulating compounds listed below (abbreviated and commercial names in parentheses) destabilize oncogenic SmoM2 protein in cultured mouse NIH3T3 cells. • 1. 17-N-Allylamino-17-demethoxygeldanamycin (17-AAG, KOS-953,Tanespimycin), • 2. 17-Dimethylaminoethylamino-17-demethoxygeldanamycin (17-DMAG, KOS-1022, Alvespimycin), • 3. 4-(6,6-dimethyl-4-oxo-3-(trifluoromethyl)-4,5,6,7-tetrahydroindazol-1-yl)-2-((1r,4r)-4-hydroxycyclohexylamino)benzamide (SNX-2112) • 4. Eeyarestatin I (EerI).

The conditions of data set [1]: cited from earlier work.
Data set [2] concerns unfolded protein response (UPR) in myeloma cells. The conditions noted are these: cited from earlier work.
For data set [3], the system named is wild type, C318A and M2 mSmo proteins. Put plainly: Temperature sensitivity analysis at 40° C. with the proteasome inhibitor MG132, western blot, NIH3T3 cells. Format: cell-based, mouse. On the procedure: Given that the bulk of mSmoC318A and mSmoM2 are ER-localized, it was reasoned that, like the active Drosophila mutants, they would be affected by induction of a thermal ER stress response. Thermal ER stress has been observed in mammalian cells cultured at 40° C. (Xu et al., 2011 [53]). Accordingly, it was observed induction of the ER stress response transcription factor CHOP in NIH3T3 cells incubated at this high temperature for 2-4 hours (FIG. 5C). To assess the effect of thermal ER stress on mSmo proteins, wild type, C318A or mSmoM2 was expressed in NIH3T3 cells cultured at 37° C., then shifted to 40° C. for 4 hours prior to whole-cell lysis (FIG. 5C′). […] (FIG. 5C′ lanes 3-6 compared to 1-2). This destabilization is the likely result of ER-associated protein degradation (ERAD), as the ER-resident forms of all three Smo variants were stabilized at 40° C. by the proteasome inhibitor MG132 (FIG. 5C′ white arrowhead, lanes 8, 10 and 12 compared to 7, 9 and 11). The post-ER form of wild type Smo was not altered by MG132 treatment (FIG. 5C′ black arrowhead, lanes 7-8).
For protein stability analysis in mammalian cells, ˜1×10^6NIH3T3 cells were transfected with 2 ug of wild type or mutant pcDNA3.1-amino expression vector (Carroll et al., 2012 [31]). For temperature sensitivity analysis, transfected cells were maintained at 37° C. for ˜44 hours, and then shifted to 40° C. for 4 hours prior to lysis. Whole-cell lysates were prepared in modified RIPA buffer (50 mM Tris-HCl, pH 7.4, 150 mM NaCl, 0.25% deoxycholic acid, 1% NP-40, 1 mM EDTA, 0.1% SDS, 0.5 mM DTT, and 1× PIC (Roche)) by rocking for 30 minutes at 4° C. as described (Nachtergaele et al., 2012 [62]). Cell extracts were cleared by centrifuging at 16,000×g at 4° C. for 45 minutes. Supernatants were collected and analyzed by SDS-Page and western blot using anti-GADD153/CHOP (B-3, SCBT) anti-Smo (E5, SCBT) and anti-tubulin (Cell Signaling) antibodies. […] Whole-cell lysates were prepared in modified RIPA buffer and analyzed as above.
A general note: Immunoblotting shows a protein as a band on a membrane.

Entries after “also recorded” stand apart in the source; their conditions may differ. Residues, ends and D or L forms follow the SMILES beside them. *: point of attachment. Cbz = O=C(OCc1ccccc1)*

For the compound `CO[C@H]1/C=C\C=C(/C)C(=O)NC2=CC(=O)C(NCCN(C)C)=C(C[C@@H](C)C[C@H](OC)[C@H](O)[C@@H](C)/C=C(\C)[C@@H]1OC(N)=O)C2=O` [17-DMAG, 17-Dimethylaminoethylamino-17-demethoxygeldanamycin], in the data set with oncogenic SmoM2 protein, the “effect on oncogenic SmoM2 protein” value is “destabilize”.
Same read-out and setting: under `CC1(C)CC(=O)c2c(C(F)(F)F)nn(-c3ccc(C(N)=O)c(N[C@H]4CC[C@H](O)CC4)c3)c2C1` [SNX-2112, 4-(6,6-dimethyl-4-oxo-3-(trifluoromethyl)-4,5,6,7-tetrahydroindazol-1-yl)-2-((1r,4r)-4-hydroxycyclohexylamino)benzamide] stands “destabilize”.
For the compound `C/C=C(/C)C(=O)O[C@H]1C(C)=C2[C@H]([C@@H]1OC(=O)CCCCCCC)[C@@](C)(OC(C)=O)C[C@H](OC(=O)CCCCCCCCCCCNC(=O)C[C@H](N)C(=O)N[C@@H](CCC(=O)N[C@@H](CCC(=O)N[C@@H](CCC(=O)N[C@@H](CCC(=O)O)C(=O)O)C(=O)O)C(=O)O)C(=O)O)[C@@]1(O)[C@H]2OC(=O)[C@@]1(C)O` [G-202], the “in vivo toxicity relative to thapsigargin” value in data set [1] is given as “significantly reduced”.
With `C=CCNC1=C2C[C@@H](C)C[C@H](OC)[C@H](O)[C@@H](C)/C=C(\C)[C@H](OC(N)=O)[C@@H](OC)/C=C\C=C(/C)C(=O)NC(=CC1=O)C2=O` [17-AAG, 17-N-Allylamino-17-demethoxygeldanamycin], the “effect on oncogenic SmoM2 protein” value in the data set with oncogenic SmoM2 protein is “destabilize”. In addition, the “activation of the branches of the UPR” value in data set [2] is reported as “capable of activating all three branches of the UPR”.
For the compound `CC1(C)C(N(O)C(=O)Nc2ccc(Cl)cc2)N(c2ccc(Cl)cc2)C(=O)N1CC(=O)NN=CC=Cc1ccc([N+](=O)[O-])o1` (stereo not shown) [Eeyarestatin I, 3-(4-Chlorophenyl)-4-[[[(4-chlorophenyl)amino]carbonyl]hydroxyamino]-5,5-dimethyl-2-oxo-1-imidazolidineacetic acid 2-[3-(5-nitro-2-furanyl)-2-propen-1-ylidene]hydrazide], in the data set with oncogenic SmoM2 protein, the “effect on oncogenic SmoM2 protein” value was “destabilize”.
On to `C[C@@H]1C[C@H]2O[C@@H]2/C=C\C=C\C(=O)Cc2c(Cl)c(O)cc(O)c2C(=O)O1` [radicicol], for which the “activation of the branches of the UPR” value in data set [2] was “capable of activating all three branches of the UPR”.
For `CC(C)C[C@@H](C=O)NC(=O)[C@H](CC(C)C)NC(=O)[C@H](CC(C)C)NC(=O)OCc1ccccc1` [MG132] (Cbz-Leu-Leu-Leu-aldehyde), in data set [3] (NIH3T3 cells shifted to 40° C. for 4 hours, MG132 treatment), the “ER-resident forms of all three Smo variants (wild type, C318A, M2): protein stability” value is reported as “stabilized”. In data set [3] (NIH3T3 cells shifted to 40° C., MG132 treatment), the “post-ER form of wild type Smo” value was “unaffected; also recorded: not altered”. Also, the “destabilization of the ER-resident forms of wild type and both mutants at 40° C.” value in data set [3] (NIH3T3 cells shifted to 40° C., MG132 treatment (FIG. 5C' legend)) is reported as “attenuated”.
